Here are results for two compounds from patent publication US20050192285A1, “Method of treatment” (priority 2000, published 2005).

Where “and” joins values, the source holds several entries; their conditions need not be identical. Equal values may be shown once.

One assay relates to H. influenzae. The note with it: subset of patients with daily sputum cultures; p=0.02; cited from earlier work.
Assay [1] can be described thus: GLOBE study: recurrence of AECB requiring antimicrobial treatment over 26 weeks. The assay is classed as in vivo, human. The settings on record: for Difference GEMI-CLARI in % patients with no recurrences / % patients resolved and with no recurrences of AECB: ITT; for % patients resolved and with no recurrences of AECB: GEMI 320 mg o.d./5 days, CLARI 500 mg b.d./7 days. The procedure:
Background: Few health outcome studies have been reported for antimicrobial treatment of acute infections. In one study, trends favoring ciprofloxacin versus ‘usual care’ in terms of clinical outcomes were found (Grossman, et al., Chest, 113:131-141 (1998)). In this double-blind, prospective long-term study, patients who enrolled into a study comparing 320 mg gemifloxacin (GEMI) once daily (o.d.)/5 days with 500 mg clarithromycin (CLARI) twice daily (b.d.)/7 days for the treatment of AECB, and agreed at enrollment to continue in the study for up to 26 weeks, were assessed for clinical status and use of health care resources.
Methods: Clinical assessments were performed at screening (day 0), week 4-5 (end of acute study), weeks 12 and 26 and by telephone at weeks 8, 17 and 21.
(§1) Prospective, 26 week, double-blind, observational parallel/follow-on study to an acute treatment efficacy and safety study (study 068) (Wilson, et al., Abstracts of the 40th Interscience Conference of Clinical Microbiology and Infectious Diseases, Toronto, Canada, Abstract 815 (2000)) in which patients randomly received a single course of either 5 days of oral GEMI 320mg once daily (o.d.) or 7 days of oral CLARI 500 mg twice daily (b.d.) for AECB (Wilson, et al., Abstracts of the 40th Interscience Conference of Clinical Microbiology and Infectious Diseases, Toronto, Canada, Abstract 815 (2000)).
All patients entering study 068 at centers in the USA and Canada were asked to participate in the GLOBE study.
(§2) Patients were assessed at screening (visit 1) at day 28-35 (visit 2) then at weeks 12 (visit 3) and 26 (visit 4) and by telephone at weeks 8, 17 and 21.
(§3) Information was collected on: recurrent episodes of AECB requiring antimicrobial treatment; use of medical resources related to respiratory tract infection (RTI), including RTI-related:- hospitalizations, physician visits and antimicrobial therapy; time off work and usual activities; and negative impact on performance at work or during usual activities.
Clinical outcomes were analyzed for patients in the intention to treat population (ITT) who were available for assessment at 26 weeks (visit 4).

Assay [2] can be described thus: GLOBE study: RTI-related hospitalizations over 26 weeks. It counts as in vivo, human. The settings on record: for percentage of patients hospitalized for RTI-related conditions / cumulative number of patients hospitalized for RTI-related conditions: 26 week study period; for cumulative number of patients hospitalized for RTI-related conditions: ITT (GEMI N=214, CLARI N=224). The procedure: as §1, §2, §3
Medical resource utilization was analyzed on cumulative data across all patients in the ITT population.

For assay [3] the following is noted: cited from earlier work.

On to `CO/N=C1\CN(c2nc3c(cc2F)c(=O)c(C(=O)O)cn3C2CC2)CC1CN` (racemic) [GEMI, (R,S)-7-(3-aminomethyl-4-methoxyiminopyrrolidin-1-yl)-1-cyclopropyl-6-fluoro-4-oxo-1,4-dihydro-1,8-naphthyridine-3-carboxylic acid], for which the “time to H. influenzae eradication compared with CLARI” value in the assay with H. influenzae is “significantly faster”. In assay [1] (6 month period following start of therapy, GEMI 320 mg o.d./5 days vs CLARI 500 mg b.d./7 days), the “preventing further exacerbations versus CLARI” value was “superior to CLARI”. For the same compound, the “long-term clinical outcomes in AECB compared to clarithromycin” value in assay [1] (GLOBE conclusions) is “superior”. Besides, in assay [1] (by week 26), the “patients with a recurrence of AECB” value amounted to 29.0%. The “fewer patients with a recurrence of AECB compared with CLARI” value in assay [1] (by week 26, relative reduction (29.0% vs. 41.5%)) stood at 30%. Moreover, in assay [1] (visit 2 (day 28-35)), the “Difference GEMI-CLARI in % patients with no recurrences” value is listed as 6.3%; the “% patients resolved and with no recurrences of AECB” value is given as 87.1 (176/202) %. In assay [1] (visit 3 (week 12)), the “Difference GEMI-CLARI in % patients with no recurrences” value amounted to 6.4%; the “% patients resolved and with no recurrences of AECB” value is listed as 80.9 (148/183) %. In addition, in assay [1] (visit 4 (week 26)), the “Difference GEMI-CLARI in % patients with no recurrences” value was 12.5% and 12.5^b %; the “% patients resolved and with no recurrences of AECB” value was 71.0% and 71.0 (120/169) %. The “RTI-related hospitalization days per 100 patients” value in assay [2] (26-week study period) is recorded as 20 days per 100 patients. In assay [2] (26-week study period, ITT), the “Cumulative number of RTI-related hospitalization days, mean (SD)” value is listed as 0.20 (1.43) days; the “Cumulative number of RTI-related hospitalization days, median (range)” value is reported as 0 (0-16) days; the “Median difference gemifloxacin-clarithromycin in RTI-related hospitalization days (95% CI)” value is 0 (0, 0) days. Further, the “percentage of patients hospitalized for RTI-related conditions” value in assay [2] (ITT) amounted to 2.3%. Further, the “cumulative number of patients hospitalized for RTI-related conditions” value in assay [2] came out at 5. For the same compound, in assay [2] (26 weeks, ITT), the “RTI-related hospitalizations across all visits, percentage” value worked out at 3.3% and the “cumulative number of RTI-related hospitalizations across all visits” value turned out to be 7. In assay [2] (GEMI minus CLARI, 26 weeks), the “treatment difference in RTI-related hospitalizations” value is recorded as −3.87% and the “treatment difference in patients hospitalized for RTI-related conditions” value was −3.91%. Also, the “effectiveness of acute treatment compared with CLARI” value in assay [3] (5 days GEMI vs 7 days CLARI) was “as effective as”. In assay [3] (all study visits, significantly higher at late follow-up days 28-35), the “bacteriological success rates compared with CLARI” value is “higher”.

For the compound `CC[C@H]1OC(=O)[C@H](C)[C@@H](O[C@H]2C[C@@](C)(OC)[C@@H](O)[C@H](C)O2)[C@H](C)[C@@H](O[C@@H]2O[C@H](C)C[C@H](N(C)C)[C@H]2O)[C@](C)(OC)C[C@@H](C)C(=O)[C@H](C)[C@@H](O)[C@]1(C)O` [CLARI, clarithromycin, reference compound], in assay [1] (by week 26), the “patients with a recurrence of AECB” value came to 41.5%. In addition, in assay [1] (visit 2 (day 28-35)), the “% patients resolved and with no recurrences of AECB” value is on record as 80.8 (173/214) %. The “% patients resolved and with no recurrences of AECB” value in assay [1] (visit 3 (week 12)) was 74.4 (131/176) %. For the same compound, the “% patients resolved and with no recurrences of AECB” value in assay [1] (visit 4 (week 26)) is 58.5% and 58.5 (100/171) %. In assay [2] (26-week study period), the “RTI-related hospitalization days per 100 patients” value amounted to 37 days per 100 patients. Besides, in assay [2] (26-week study period, ITT), the “Cumulative number of RTI-related hospitalization days, mean (SD)” value was 0.37 (1.60) days and the “Cumulative number of RTI-related hospitalization days, median (range)” value is given as 0 (0-11) days. Further, the “percentage of patients hospitalized for RTI-related conditions” value in assay [2] (ITT) worked out at 6.3%. Moreover, in assay [2], the “cumulative number of patients hospitalized for RTI-related conditions” value is 14. For the same compound, in assay [2] (26 weeks, ITT), the “RTI-related hospitalizations across all visits, percentage” value worked out at 7.1% and the “cumulative number of RTI-related hospitalizations across all visits” value turned out to be 16.
